Data taken from article PMC2648833 (Biochemistry, 2008).

Tests used:
Experiment in all cases: […] release, TLC
Format in all cases: biochemical
Details in all cases: labelled compound; 1 mM ATP, 2 mM MgCl2, salmon sperm DNA, Tris-HCl pH 8.0, 37 °C
[1] = biological target: UvrD2 (MsmUvrD2), full-length (Mycolicibacterium smegmatis, UniProt A0QTT0)
[2] = biological target: UvrD2 (MsmUvrD2), full-length (Mycolicibacterium smegmatis, UniProt A0QTT0, C614A/C617A)
[3] = biological target: UvrD2-(1-630) (ΔHRDC) (Mycolicibacterium smegmatis, UniProt A0QTT0)

SMILES: Nc1ncnc2c1ncn2[C@@H]1O[C@H](COP(=O)(O)OP(=O)(O)OP(=O)(O)O)[C@@H](O)[C@H]1O [ATP]
- 32Pi release, TLC [1]: The two proteins displayed virtually identical specific activity for ATP hydrolysis
- 32Pi release, TLC [2]: The paired cysteine mutations had no deleterious effect on DNA-dependent ATPase specific activity
- 32Pi release, TLC [3]: The two proteins displayed virtually identical specific activity for ATP hydrolysis
